One substance from publication PMC8694143 (Microbiology Spectrum, 2021) can be followed below.

The subject of one data set is MRSA ATCC BAA-2313. The data set can be described thus: MIC determination in broth. It is filed as cell-based, Staphylococcus aureus. To be noted: STIP3 variants, highest conc. tested 100 μg/mL; cation-adjusted MH broth, ~10^5 CFU/mL, 2-fold dilution series, 37°C, 16 h. A digest of the protocol:
(§1)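 Strains were grown in LB at 37°C, then diluted in cation-adjusted Mueller-Hinton broth to OD 5 × 10^−4 (∼10^5 CFU/mL). Peptides were added in 2-fold dilutions, and plates were incubated without shaking at 37°C.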

For a further data set, the system named is MRSA ATCC BAA-2094. The data set can be described thus: MIC determination in broth. To be noted: STIP3 variants, highest conc. tested 100 μg/mL; cation-adjusted MH broth, ~10^5 CFU/mL, 2-fold dilution series, 37°C, 16 h. It is filed as cell-based, Staphylococcus aureus. A digest of the protocol: as §1
A further data set has as its system MRSA ATCC 33592. As to the kind of experiment: MIC determination in broth. It counts as cell-based, Staphylococcus aureus. A digest of the protocol: as §1
Another data set relates to MRSA ATCC BAA-44. As to the kind of experiment: MIC determination in broth. To be noted: STIP3 variants, highest conc. tested 100 μg/mL; cation-adjusted MH broth, ~10^5 CFU/mL, 2-fold dilution series, 37°C, 16 h. It counts as cell-based, Staphylococcus aureus. Put shortly:
as §1

For a further data set, the system named is MRSA ATCC BAA-41. As to the kind of experiment: MIC determination in broth. It counts as cell-based, Staphylococcus aureus. To be noted: STIP3 variants, highest conc. tested 100 μg/mL; cation-adjusted MH broth, ~10^5 CFU/mL, 2-fold dilution series, 37°C, 16 h. A digest of the protocol:
as §1

The next data set relates to MRSA ATCC BAA-42. The data set can be described thus: MIC determination in broth. It counts as cell-based, Staphylococcus aureus. To be noted: STIP3 variants, highest conc. tested 100 μg/mL; cation-adjusted MH broth, ~10^5 CFU/mL, 2-fold dilution series, 37°C, 16 h. Put shortly: as §1
In another data set the test system is MRSA ATCC BAA-1683. As to the kind of experiment: MIC determination in broth. It counts as cell-based, Staphylococcus aureus. Particulars: STIP3 variants, highest conc. tested 100 μg/mL; cation-adjusted MH broth, ~10^5 CFU/mL, 2-fold dilution series, 37°C, 16 h. A digest of the protocol:
as §1

A further data set relates to S. aureus ATCC 29213. As to the kind of experiment: MIC determination in broth. It is filed as cell-based, Staphylococcus aureus. Particulars: STIP3 variants, highest conc. tested 100 μg/mL; cation-adjusted MH broth, ~10^5 CFU/mL, 2-fold dilution series, 37°C, 16 h. A digest of the protocol:
as §1

Data set [1] concerns S. pseudintermedius canine isolate MRSP16. The data set can be described thus: MIC determination in broth. It is filed as cell-based, Staphylococcus pseudintermedius. Particulars: MH broth. As for the experimental part: (§2) The MICs were measured for bioactive peptides identified from the initial screen. Cation-adjusted Mueller-Hinton (MH) broth was used as the growth medium for MIC determination experiments. Bacterial cultures were diluted to an OD of 5 × 10^−4 (∼10^5 CFU/mL) in 200 μL MH broth mixed with peptides in a 2-fold dilution series arrayed in 96-well plates. Plates were incubated without shaking at 30 or 37°C depending on the organism.

Data set [2] relates to S. pseudintermedius human isolate SPC001 (MSSP). The data set can be described thus: MIC determination in broth. It is filed as cell-based, Staphylococcus pseudintermedius. Particulars: MH broth. On the procedure: as §2
The test system of data set [3] is S. pseudintermedius human isolate SPC002 (MSSP). The data set can be described thus: MIC determination in broth. To be noted: MH broth. It counts as cell-based, Staphylococcus pseudintermedius. On the procedure:
as §2

Data set [4] relates to S. pseudintermedius canine isolate MSSP42. As to the kind of experiment: MIC determination in broth. It is filed as cell-based, Staphylococcus pseudintermedius. To be noted: MH broth. On the procedure:
as §2

The subject of data set [5] is S. pseudintermedius human isolate SPC020 (MSSR). As to the kind of experiment: MIC determination in broth. It counts as cell-based, Staphylococcus pseudintermedius. To be noted: MH broth. On the procedure:
as §2

For data set [6], the system named is S. pseudintermedius canine isolate MRSP24. As to the kind of experiment: MIC determination in broth. It is filed as cell-based, Staphylococcus pseudintermedius. To be noted: MH broth. On the procedure: as §2
A further data set deals with 3D EpiDerm skin tissues. The data set can be described thus: Tissue cytotoxicity, alamarBlue. It counts as cell-based, human. Particulars: 250 μg/mL (40-fold the MIC), 24 h, data not shown. On the procedure:
Cytotoxicity was measured using the 3D EpiDerm skin tissues and HeLa (ATCC CCL-2) cells using a fluorescent reporter of cell viability, alamarBlue (ThermoFisher Scientific). 3D EpiDerm skin tissues (MatTek EPI-200-AFAB) were transferred to a 12-well plate containing 600 μL of AFAB-assay medium supplemented with 10% vol/vol alamarBlue. […] HeLa cells were seeded in a 96-well plate at 2 × 10^4 cells/per well and incubated overnight at 37°C in a humidified 5% CO2 environment to prepare wells at ∼50% confluence for treatments after spent Dulbecco’s modified Eagle’s medium (DMEM) was removed and cells were washed with PBS. Assays were then performed using phenol red-free DMEM supplement with 9% vol/vol alamarBlue and peptide concentrations varying from 3.13 to 200 μg/mL. After a 24 h incubation period, alamarBlue fluorescence emission was measured at 590 nm upon excitation at 560 nm using Varioskan Lux plate reader (Thermo Scientific). Fluorescence intensities of treated cultures were normalized to measurement made for untreated control samples. Experimental data sets were fit to nonlinear dose-response curves to determine IC50 values using Origin 2019.
A general note: The colour change of resazurin is a common sign of viable cells or microbes.

Another data set relates to sheep red blood cells. The data set can be described thus: Hemolytic activity assay. It is filed as cell-based. Particulars: peptides at 100 μg/mL, 1 h, relative to the δ-toxin and other STIPs. As for the experimental part:
Thirty-five percent defibrinated sheep’s blood (vol/vol) was centrifuged for 5 min at 4,000 rpm to harvest red blood cells. The cells were washed three times with PBS and harvested by centrifugation prior to dilution to 15% (vol/vol) in PBS in order to evaluate peptide-mediated hemolysis. The assay was performed in 96-well microtiter plates using peptides at 100 μg/mL in a 200-μL volume. […] was used as a negative control and Triton X-100 (0.1% vol/vol) was used as a positive control for complete lysis. After 1 h of incubation, the 96-well microtiter plates were centrifuged at 4,500 rpm for 10 min and a 150 μL aliquot of the supernatant from each sample was carefully transferred to a new 96-well plate. The absorbance of the supernatant was then measured at 540 nm using a Varioskan Lux plate reader (Thermo Scientific). The hemolytic activity is reported relative to complete lysis (%) obtained using Triton X-100. Experiments were performed in triplicate, and statistical differences in hemolysis were measured using an unpaired two-tailed Student’s t test to compare the STIPs and deformylated δ-toxin to the formylated δ-toxin.

Data set [7] can be described thus: Circular dichroism spectroscopy. It counts as physicochemical. Particulars: CD, 50% TFE (vol/vol), peptide 0.2 mg/mL, room temperature. On the procedure:
Peptides were dissolved in ultrapure water or 50% TFE (vol/vol) at a concentration of 0.2 mg/mL for spectroscopy. Spectra of samples in a 1 mm pathlength quartz cuvette were recorded from 180 to 260 nm at 0.5 nm steps using an Applied Photophysics Chirascan Plus CD spectrophotometer operating at room temperature.

Another data set deals with M. luteus ATCC 4698. As to the kind of experiment: MIC determination in broth. It counts as cell-based, Micrococcus luteus.

No end group written: not given here.

Consider TVGGLVKWILKTVKKFA-NH2 [STIP3-29], for which, in the data set with MRSA ATCC BAA-2313, the “MIC, S. aureus ATCC BAA 2313 (SCCmec XI)” value was 6.25 µg/mL. In the data set with MRSA ATCC BAA-2094, the “MIC, S. aureus ATCC BAA 2094 (SCCmec V)” value worked out at 6.25 µg/mL. Further, the “Improvement to antibiotic activity relative to STIP3-1” value in the data set on MRSA ATCC 33592 (S. aureus ATCC 29213 and MRSA panel MICs) is reported as 16 fold. Moreover, the “MIC (μg/mL) for MRSA ATCC 33592” value in the data set on MRSA ATCC 33592 (Table 1 and text, cation-adjusted MH broth, ~10^5 CFU/mL, 37°C, 16 h) came out at 6.25 µg/mL. Further, in the data set on MRSA ATCC 33592 (Table S5, STIP3 variants, highest conc. tested 100 μg/mL, cation-adjusted MH broth, ~10^5 CFU/mL, 2-fold dilution series, 37°C, 16 h), the “MIC, S. aureus ATCC 33592 (SCCmec III)” value is 6.25 µg/mL. Further, the “MIC for MRSA, molar” value in the data set on MRSA ATCC 33592 (conversion of 6.25 μg/mL) is 3.3 µM. In addition, the “MIC, S. aureus ATCC BAA 44 (SCCmec I)” value against MRSA ATCC BAA-44 came to 6.25 µg/mL. The “MIC, S. aureus ATCC BAA 41 (SCCmec II)” value with MRSA ATCC BAA-41 turned out to be 6.25 µg/mL. Further, the “MIC, S. aureus ATCC BAA 42 (SCCmec VI)” value in the data set on MRSA ATCC BAA-42 was 6.25 µg/mL. The “MIC, S. aureus ATCC BAA 1683 (SCCmec IV)” value in the data set on MRSA ATCC BAA-1683 was found to be 6.25 µg/mL. The “MIC, S. aureus ATCC 29213” value with S. aureus ATCC 29213 was 12.5 µg/mL. For the same substance, the “MIC, S. pseudintermedius MRSP16” value in data set [1] amounted to 3.13 µg/mL. Also, in [2], the “MIC, S. pseudintermedius SPC001 (MSSP)” value was determined as 3.13 µg/mL. For the same substance, the “MIC, S. pseudintermedius SPC002 (MSSP)” value in data set [3] was found to be 3.13 µg/mL. The “MIC, S. pseudintermedius MSSP42” value in [4] worked out at 3.13 µg/mL. Also, the “MIC, S. pseudintermedius SPC020 (MSSR)” value in data set [5] was 3.13 µg/mL. The “MIC, S. pseudintermedius MRSP24” value in data set [6] stood at 3.13 µg/mL. Besides, the “Tissue-level cytotoxicity, redox-sensitive dye” value in the data set with 3D EpiDerm skin tissues was “unable to differentiate STIP3-29-treated and untreated samples”. Besides, the “Change of hemolytic activity” value in the data set on sheep red blood cells is listed as “increase in hemolysis”. In addition, the “α-Helical content (%)” value in data set [7] is 61%. For the same substance, the “MIC, M. luteus” value with M. luteus ATCC 4698 (cation-adjusted MH broth, ~10^5 CFU/mL, 30°C, 48 h) is 1.56 µg/mL. Also, the “MIC, M. luteus, molar” value with M. luteus ATCC 4698 (conversion of 1.56 μg/mL) amounted to 0.85 µM.
